This note sets out measurements from the METLIN SMRT retention time set (Domingo-Almenara et al. 2019).

This data set in a line: gradient 5% acetonitrile 3 min, to 50% in 2 min, to 85% in 15 min, held 3 min, 100 µL/min. The conditions noted are these: column: Zorbax Extend-C18 2.1 x 50 mm; eluents: water / acetonitrile, 0.1% formic acid. In outline:
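Standards, all pure, were combined into mixtures of ~100 molecules and run at 100 μL/min on a Zorbax Extend-C18 column (2.1 × 50 mm, 1.8 μm) with water and acetonitrile, each containing 0.1% formic acid. A coupled quadrupole time-of-flight mass spectrometer operated in positive and negative ionization mode. Retention time values come from computationally picked adduct peaks, each inspected manually.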
`O=C(CC1CCCC1)N1CCN(c2nc(CN3CCCCC3)cs2)CC1` came in with an RP-LC retention time of 642 s.
In the case of `CCn1c(C2CCN(S(=O)(=O)c3ccc4c(c3)CCCC4)C2)nc2ccncc21` (centres undefined), the RP-LC retention time amounted to 585 s.
In the case of `Cc1nc2cc(N3CC(C(=O)N4CCN(c5ccccc5C)CC4)CC3=O)ccc2o1` (centres undefined), the RP-LC retention time amounted to 848 s.
On to `CC1CCN(c2nn(CC(=O)Nc3ccccc3)c(=O)c3ccccc23)CC1`, for which the RP-LC retention time was 1110 s.
`COC(=O)CNC(=O)N1CCCC1c1ccccc1Cl` (centres undefined) registered an RP-LC retention time of 754 s.
`O=C(NCCc1cnc[nH]1)c1cc(-c2cccnc2)nc2ccccc12` came in with an RP-LC retention time of 566 s.
Take `Cn1c(CN2CCN(C(=O)c3cccs3)CC2)nc2cc(C(=O)N3CCCC3)ccc21`: the RP-LC retention time is 597 s.
To `Cc1nc(N2CCN(c3ncccn3)CC2)nc2c1C(=O)CC(c1ccccc1O)C2` (centres undefined) belongs 969 s; to `CCC1CCCCN1C(=O)c1cnc2nc(C)ccc2c1Nc1cc(OC)cc(OC)c1` (centres undefined), 674 s.
As to `Clc1ccc(-c2nc(-c3ccc4nncn4c3)no2)cc1`, the RP-LC retention time amounted to 896 s.
With `COc1cc(NC(=O)CSC2CCc3ccccc3NC2=O)cc(OC)c1` (centres undefined) the figure was 796 s; with `CN1CCN(CCCNC(=O)CN2C(=O)C3CCCCN3c3ccc(C(=O)N4CCCC4)cc32)CC1` (centres undefined), 579 s.
To `COc1ccc(C2=C(C)C(N3CCC(C(=O)NC4CCCC4)CC3)=NS2(=O)=O)cc1` belongs 780 s; to `CC(C)OCCCNC(=O)C1CCN(S(C)(=O)=O)c2cc(Cl)ccc2O1` (centres undefined), 838 s.
To `O=C(NCc1ccc2c(c1)OCO2)C1CCCN(c2ncc(-c3ccccc3)cn2)C1` (centres undefined) belongs 992 s; to `Cc1ccn2cc(-c3ccc(NC(=O)c4cc(Br)ccc4Cl)cc3)nc2n1`, 700 s.
`CCOc1cccc(CNc2c(C(=O)OC)c(=O)[nH]c3c(Cl)cccc23)c1`: the RP-LC retention time was determined as 873 s.
`O=C(NCCc1ccccc1)NCCC1CCN(S(=O)(=O)c2ccc(F)cc2)CC1` registered an RP-LC retention time of 887 s.
As for `Cc1ccc2c(c1)NN=C(C(=O)N1CCC(C)CC1)S2(=O)=O`, the RP-LC retention time was determined as 809 s.
In the case of `Cc1cc(C)nc(SCC(=O)Nc2nc(-c3ccccc3)c(-c3ccccc3)o2)n1`, the RP-LC retention time came out at 1050 s.
`O=C1CC(c2nc(-c3ccc4c(c3)OCO4)no2)CN1c1ccc2c(c1)OCCO2` (centres undefined) came in with an RP-LC retention time of 895 s.
As for `COc1cc(OC)c(NC(=O)N2c3ccccc3CC2c2nc(C3CC3)no2)cc1Cl` (centres undefined), the RP-LC retention time was determined as 1120 s.
With `CCOC(=O)c1ccc(NC(=O)c2c(OC)cc(=O)n3c2CCCC3)cc1` the figure was 718 s.
With `COC(=O)c1c(C)[nH]c(C(=O)N2CCC(CC(=O)NCCC3=CCCCC3)CC2)c1C` the figure was 787 s; with `COc1cc(OC)cc(C(=O)Nc2ccc3sccc3c2)c1`, 882 s.
`Cc1ccc(-n2c(=O)c3sccc3n(Cc3nc(-c4cccc(C(F)(F)F)c4)no3)c2=O)cc1` gave an RP-LC retention time of 1100 s.
With `CSc1ccc(-c2nc3cc(C)ccn3c2Nc2ccc(C)cc2)cc1`, the RP-LC retention time is 808 s.
Molecule `O=C(CCC1CCCN(c2cc(NC3CC3)ncn2)C1)NCc1ccc(F)cc1` (centres undefined) had an RP-LC retention time of 676 s.
The molecule `Cc1cc(NC(=O)C2CCN(C(=O)C3(c4cccs4)CCCC3)CC2)no1` yielded an RP-LC retention time of 800 s.
Molecule `O=C(NCCCN1CCCC1)C1CCN(c2nnc3ccc(Cl)cn23)CC1` gave an RP-LC retention time of 556 s.
Turning to `COCCc1noc(C2CN(S(=O)(=O)c3cccc(F)c3)C2)n1`, the RP-LC retention time was found to be 784 s.
In the case of `CCCn1ncc(N2CCC(C(=O)NCc3cccc(F)c3)CC2)cc1=O`, the RP-LC retention time came to 706 s.
The molecule `CNC(=O)C1CCCN(c2nc3ncn(CC(=O)Nc4cccc(Cl)c4)c(=O)c3s2)C1` (centres undefined) showed an RP-LC retention time of 672 s.
The molecule `Cc1oc(-c2[nH]ncc2C(=O)N(C)C)cc1S(=O)(=O)NC(C)C` displayed an RP-LC retention time of 600 s.
Regarding `CCN(CC)S(=O)(=O)c1ccc2c(c1)cc(C(=O)NCCc1c[nH]c3ccc(OC)cc13)n2C`, the RP-LC retention time stood at 964 s.
With `CCC(C)NC(=O)c1cc(C)[nH]n1` (centres undefined) the figure was 623 s.
The molecule `Cc1[nH]c(=O)[nH]c(=O)c1CCC(=O)N1CCC(c2nc3ccccc3s2)CC1` showed an RP-LC retention time of 592 s.
Molecule `COc1ccc(Cl)cc1NC(=O)N1CCCC1c1nc(-c2ccccc2OC)no1` (centres undefined) returned an RP-LC retention time of 1010 s.
Consider `CCc1ccc(NC(=O)N2CCN(Cc3ccc4nccnc4c3)CC2)cc1`, for which the RP-LC retention time was 626 s.
To `CN1C(=O)c2cc(C(=O)N3CCN(c4ncccn4)CC3)nn2CC1(C)C(=O)NC1CCCCC1` (centres undefined) belongs 702 s; to `O=C(CN1C(=O)CCCc2cc(S(=O)(=O)N3CCCCCC3)ccc21)Nc1cccc(F)c1`, 988 s.
The molecule `Cc1ccc(-c2nc(N)n(C(=O)c3ccc(C(C)(C)C)cc3)n2)cc1` showed an RP-LC retention time of 1280 s.
Molecule `CCCNc1cc(N2CCCC(CCC(=O)NCc3ccccn3)C2)ncn1` (centres undefined) yielded an RP-LC retention time of 550 s.
Regarding `CC(C)Cn1cc(CCNS(=O)(=O)c2cc(Cl)ccc2Cl)c2cccnc21`, the RP-LC retention time turned out to be 1040 s.
`COc1ccc(N2CCN(C(=O)Cc3csc4nc(-c5ccc(OC)c(OC)c5)cn34)CC2)cc1` had an RP-LC retention time of 686 s.
To `COCC1CN(C)CC12CCN(S(=O)(=O)c1ccc(F)c(C)c1)CC2` (centres undefined) belongs 659 s; to `Cc1cc2[nH]c(C(=O)Nc3ccc(Cl)cc3F)c(CN3CCOCC3)c2s1`, 759 s; to `Cc1cc(NC(=O)Cn2nc(N(C)C)c3ccccc3c2=O)ccc1Br`, 995 s.
In turn, `CCCNc1nc(-c2nnc(-c3cccc(C)c3)o2)nc2ccccc12` had an RP-LC retention time of 1000 s.
`CCOCCCNC(=O)C1CCCN(S(=O)(=O)c2ccc(OC)c(C)c2)C1` (centres undefined): the RP-LC retention time was 813 s.
`O=C(Nc1cccc(Cl)c1)N1CCN(c2cnn3c(C4CC4)nnc3c2)CC1` showed an RP-LC retention time of 694 s.
Molecule `O=C(c1ccc2nsnc2c1)N(Cc1ccsc1)Cc1ccco1` yielded an RP-LC retention time of 898 s.
Consider `CCc1ccc(CNC(=O)CN2CCc3ccccc3C2C(=O)N2CCC(C)CC2)cc1` (centres undefined), for which the RP-LC retention time was found to be 1050 s.
For the molecule `OCCN1CCN(CC(O)COc2ccc3c(c2)CCC3)CC1` (centres undefined), the RP-LC retention time worked out at 553 s.
The molecule `CCc1nc2c(N)cccn2n1` gave an RP-LC retention time of 597 s.
In turn, `O=C(NCc1csc(C2CCCN(C(=O)c3ccccc3F)C2)n1)C1CCC1` (centres undefined) showed an RP-LC retention time of 727 s.
With `CCc1cc(=O)n(CC(=O)Nc2cccc(C#N)c2)c(-c2ccccc2)n1` the figure was 1080 s; with `CCc1ccc(N2C(=O)CN(Cc3ccccc3Cl)[C@H]3CS(=O)(=O)C[C@H]32)cc1`, 910 s; with `Cc1ccc(Nc2c(C(=O)N3CCOCC3)cnc3nc(C)ccc23)cc1`, 598 s.
Molecule `O=C1CCCN1Cc1noc(-c2ccccc2Cl)n1` registered an RP-LC retention time of 770 s.
The molecule `CCc1cc(=O)n(Cc2cccc(F)c2)c(N2CCOCC2)n1` returned an RP-LC retention time of 909 s.
Molecule `Cc1ccc(-c2nnc(Cc3nc(-c4ccccc4C)no3)o2)cc1` gave an RP-LC retention time of 1100 s.
The molecule `CCOc1ccc(NC(=O)c2cn(-c3cc(N4CCC(C)CC4)ncn3)cn2)cc1` displayed an RP-LC retention time of 1110 s.
To `COc1cc2c(cc1OC)C(C(=O)NCCCN1CCCC1=O)C1c3ccccc3CCN1C2=O` (centres undefined) belongs 663 s.
With `CCC1Oc2ccc(S(=O)(=O)N3CCC(C(=O)NC4CCCCCC4)CC3)cc2NC1=O` (centres undefined) the figure was 951 s.
To `COc1cc(-c2ccnc3nc(CCc4ccccc4)nn23)cc(OC)c1OC` belongs 856 s; to `COc1ccc(-c2nnc(-c3ccc(C)c(S(=O)(=O)N(C)C)c3)o2)cc1OC`, 878 s.
Regarding `O=C(c1ccccc1Cl)N1CCN(c2nc(CN3CCOCC3)cs2)CC1`, the RP-LC retention time is 600 s.
Take `Cc1cccn2c(NC(=O)c3cc4ccccc4oc3=O)c(-c3ccccc3)nc12`: the RP-LC retention time worked out at 695 s.
With `O=C(Nc1ccc(F)cc1)C1CCCN(C(=O)c2ccc(F)c(F)c2)C1` (centres undefined) the figure was 860 s; with `O=C(NC1c2ccccc2-c2ccccc21)c1cccc([N+](=O)[O-])c1`, 961 s; with `CCc1cccc(C)c1NC(=O)Cn1cnc2nc(N3CCC(C(=O)NC4CC4)CC3)sc2c1=O`, 686 s.
Molecule `COc1ccc(C2C(C(=O)C3CC3)=C(O)C(=O)N2CCCOC(C)C)cc1OC` (centres undefined) showed an RP-LC retention time of 736 s.
With `Cc1csc(-c2cc(S(=O)(=O)NCCCN3CCOCC3)cn2CC(=O)N2CCCCC2)n1`, the RP-LC retention time was determined as 667 s.
`Cc1ccc(C(C)NC(=O)c2ccc(CN3CCN(C(C)C)C(=O)C3=O)cc2)c(C)c1` (centres undefined): the RP-LC retention time is 761 s.
To `O=C(NCc1ccc(Cl)cc1)c1ccc2ccnc(N3CCN(C(=O)c4ccco4)CC3)c2c1` belongs 739 s; to `O=C(Nc1c(C(=O)Nc2ccccc2F)oc2ccccc12)c1ccc(Br)o1`, 1190 s.
The molecule `Cc1cc(NC(=O)CSc2nc3ccccc3s2)no1` yielded an RP-LC retention time of 810 s.
With `Cn1cc(S(=O)(=O)N2CCC(C(=O)Nc3ccc4c(c3)OCO4)CC2)cc1C(=O)N1CCCC1` the figure was 716 s.
